Source: ChEMBL document CHEMBL1131175, “Use of papain as a model for the structure-based design of cathepsin K inhibitors: crystal structures of two papain-inhibitor complexes demonstrate binding to S'-subsites” (J Med Chem, 1998)

Target: T1, Papain (Carica papaya, UniProt P00784)
T1 sequence (P00784 whole entry): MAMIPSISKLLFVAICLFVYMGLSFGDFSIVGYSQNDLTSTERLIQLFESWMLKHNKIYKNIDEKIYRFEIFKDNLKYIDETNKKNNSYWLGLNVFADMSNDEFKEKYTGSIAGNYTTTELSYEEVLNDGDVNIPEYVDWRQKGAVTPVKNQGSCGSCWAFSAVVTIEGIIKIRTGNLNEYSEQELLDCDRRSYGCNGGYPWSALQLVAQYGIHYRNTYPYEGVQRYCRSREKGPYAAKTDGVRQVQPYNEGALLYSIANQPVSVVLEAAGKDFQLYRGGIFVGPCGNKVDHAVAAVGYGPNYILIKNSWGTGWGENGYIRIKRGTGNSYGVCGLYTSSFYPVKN
Experiment: Inhibitory activity measured against papain.
Settings: read-out: Ki app

Work on CC(C)C[C@H](NC(=O)OCc1ccccc1)C(=O)NCC(=O)CNC(=O)[C@H](CC(C)C)NC(=O)OCc1ccccc1 yielded a Ki of 10 µM.
